Data on three sequences can be found in publication PMC5226491, “Efficient therapeutic delivery by a novel cell-permeant peptide derived from KDM4A protein for antitumor and antifibrosis” (Oncotarget, 2016).

One data set concerns Caski cells. The data set is classed as cell-based, human. The method, then: (§1) Intracellular fluorescence intensity quantification was measured using Multimode Microplate Reader (Tecan 2000; Tecan, Mannedorf, Switzerland). The intracellular uptake of FITC-labeled peptide was performed as described previously. Briefly, after the incubation, cells were washed and then lysed by adding 300 μl lysing buffer (0.1 M NaOH) for 10 min, the cell lysates were harvested and centrifuged (14000 g for 5 min), the supernatant was used to measure the fluorescence intensity. The fluorescence of cellular uptake is expressed as fluorescence intensity per mg of total cellular protein. All experiments were repeated at least three times and always performed in triplicate.

Data set [1] concerns different cell lines. Kind of data set: Uptake of FITC-labeled hPP10 in different cell lines. It counts as cell-based. Particulars: for Effect of temperature on internalization: incubation at 4°C or 37°C, with or without DMSO. On the procedure:
as §1

Data set [2] deals with primary cultured cells (mouse spleen lymphocytes, human peripheral blood lymphocytes, mouse primary fibroblast cells). Kind of data set: Uptake of FITC-labeled hPP10 in primary cultured cells. The data set is classed as cell-based. To be noted: mouse spleen lymphocytes and hPBMCs with 5% DMSO treatment.
Protocol: The internalization of FITC conjugated hPP10 into cultured cells was observed using fluorescence microscopy. All types of cells were plated in 24-well-plates (Greiner, Germany) and cultivated to semi-confluence in RPMI-1640 medium in a CO2 incubator for 24 h at 37°C. Cells were washed with PBS, followed by 5.0 μM FITC-labeled peptide or fusion protein incubation with serum-free medium for 1 h at 37°C, the medium was removed, the cells were further washed with PBS 3 times, and then imaged using fluorescence microscope (Nikon, Japan) with a band-pass filter.
Data set [3] concerns different cell lines.
Protocol: Cells were seeded in 96-well plates at 24 h before treatment. […] MTT solution (5 mg/mL) was added into fresh serum medium for further 4 h incubation. DMSO was used to solubilize formazan, and the absorbance was measured using a Multiskan Spectrum plate reader (Thermo, USA).
The test system of data set [4] is different cell lines. The source holds these as a separate data set.
Protocol: Membrane integrity was assessed by lactate dehydrogenase (LDH) leakage into the culture medium. […] Cell-free supernatant was obtained and transferred to another 96-well-plate; substrate mixture was added to each well for another 10 min enzymatic reaction. Absorbance was measured at 560/590 nm using a Multiskan Spectrum plate-reader (Thermo, USA).

As to KIPLPRFKLKCIFCKKRRKR [hPP10], the “Fluorescence of cytosol compared with TAT-FITC” value in the data set with Caski cells is “higher than TAT-FITC group”. Also, the “Permeation of cancerous or immortalized cell lines” value in the data set on different cell lines [1] (B16, ECV304, HepG2, T24, L929, HSC-T6, THP1, 5 μM FITC-labeled peptide, 1 h) is given as “capable of permeating a wide variety of cancerous or immortalized cell lines”. In addition, the “Permeation of primary cultured cells” value in data set [2] is given as “able to permeate into primary cultured cells”. The “Cytotoxicity, MTT assay” value with different cell lines [3] is “minimal cytotoxicity”. Besides, the “Membrane disturbance, LDH release” value with different cell lines [4] is “low membrane disturbance”.
As for “KIPLPRFKLKCIFCKKRRKR [hPP10-FITC, synthesized FITC-labeled hPP10 peptide]”, the “Duration of intracellular fluorescence” value in the data set on Caski cells was “long-lasting fluorescence than TAT-FITC”. Moreover, the “Effect of heparin on cellular uptake” value in the data set with different cell lines [1] (co-incubated with 0.5 U/mL heparin, different cells) is “greatly decreased in the presence of heparin”. Besides, in the data set with different cell lines [1] (different cell lines, mean ± SD for 3 samples), the “Effect of serum on penetrating efficiency” value is reported as “decreased in the presence of serum”. Further, the “Effect of temperature on internalization” value in the data set with different cell lines [1] is “less energy-sensitive than that of TAT-FITC without DMSO treatment”.
For “YGRKKRRQ RRRK [TAT-FITC, FITC-labeled HIV-1 TAT peptide used for positive control, reference compound]”, the “Effect of temperature on internalization” value in the data set on different cell lines [1] is given as “energy-dependent with or without DMSO treatment”.
